Values joined by “and” are separate entries in the source; they are usually repeats but may differ in a detail not shown here. Equal values may be shown once.
Assays:
[1] = tested on: IDH1(R132H) primary human AML cells; experiment: AML clearance in peripheral blood (flow cytometry, % hCD33+hCD45+ of total white cells), human AML PDx models in NSG mice; format: in vivo; details: for AML clearance (% hCD33 + hCD45+ (of total white cells)): 50 mg/kg Midostaurin, QD, PO, each value one animal, 50 mg/kg; for % peripheral blood AML cells (treatment group value): group F: midostaurin (50 mg/kg)
Description: (§1) Compounds and Formulation. For in vivo studies, each test article is prepared at an appropriate concentration with vehicle. […] Compound A is prepared fresh at the appropriate concentrations with vehicle every 7 days and stored at 4° C. between doses. […] Cytarabine is prepared fresh weekly by dilution with sterile saline from stock solution of Cytarabine (injection 20 mg/mL, (Pfizer injectables')). Azacitidine (Sigma, Lot #MKBR7212) is formulated in sterile water and is prepared fresh daily immediately before dosing. In vivo human AML PDx models. […] Two models are used in the studies: […] As needed, splenocytes from tumor-bearing mice are used to propagate and expand the models, as described. Each test article is prepared as described above at an appropriate concentration with vehicle to give animals the doses tested in this study at a dosing volume of 10 μL/gram body weight. Mice receiving Compound A (PO, QD) are treated at the indicated doses for the duration of the study. The combination agents are dosed as follows: […] Treated mice are assessed in comparison to vehicle treated and naïve (non-tumor bearing) control mice. Body weight is recorded twice per week. […] AML PDx model propagation. […] Spleens are processed and splenocytes isolated as described below. Two hundred μL per subject of the splenocyte prep is injected IV (intravenous, tail vein) into recipient NSG mice. […] Once engraftment is confirmed, the mice are monitored biweekly until ready to be put on study. […] Submandibular blood is collected. Spleen/Splenocyte Processing and Prep. After excision, a spleen is weighed, and […] is placed in a standard sterile 15 mL polypropylene conical tube containing PBS, and placed on ice. […] The spleen is placed in ice cold sterile PBS in a 15 mL collection tube. The spleen is removed from the collection tube and placed in a 100 micron 50 mL conical tube cell strainer (BD Falcon #352360). The spleen is processed by gentle rubbing of the spleen tissue against the surface of the cell strainer with the end of a 5 mL syringe plunger in a circular motion. The surface of the strainer is rinsed with 10 mL room temperature sterile DPBS (HyClone SH30028) 3 times during the process. […] The cell pellet is collected by centrifugation (300×g) and washed three times with 30 mL sterile DPBS. The cells are counted and resuspended in DPBS at the desired implant concentration. Bone Marrow Collection. […] Flow cytometry analysis of human white cells. Submandibular blood samples from in vivo studies are collected. Fluor-conjugated antibody stains are added according to the manufacturer's instructions (anti-human CD33-PE (clone WM53, BD Cat #555450), anti-human CD14-APC (clone MφpP9, BD Cat #340436), anti-human CD15-V450 (clone HI98, BD Cat #561584), anti-human CD117-BV421 (clone YB5.B8, BD Cat #562434), anti-human […]7 (clone ICRF44, BD Cat #557754), anti-human […]7 (clone HI30, BD Cat #557748), and anti-human CD3-FITC (clone SK7, BD Cat #340542)). The samples are incubated for 30 minutes at room temperature, protected from light. After the incubation, 1.5 mL 1×BD Lyse/Fix (37° C., (BD #558049)) is added to each sample and incubated for 12 minutes at room temperature. The tubes are centrifuged at 300×g for 7 minutes. BD Lyse/Fix solution is aspirated and the cell pellet washed with stain/wash buffer 3 times (1 wash step consisted of: pellet resuspended in 3 mL stain/wash buffer, centrifuged at 300×g, aspirated wash). Fixed cells are then resuspended in 300 to 400 μL stain/wash buffer. Samples are analyzed on a Becton Dickinson FACSVerse Flow cytometer (Cat #651155 Serial #Z6511550447) using standard flow cytometry principles and techniques. Samples are analyzed on the same day as they are stained and fixed. Population gating and data analysis of percent population are performed in the FACSuite software on the FACSVerse cytometer. Percent population values from the data analysis are plotted in Graphpad Prism or in JMP13. […]

[2] = tested on: IDH1(R132H) primary human AML cells; experiment: AML cell differentiation in blood (flow cytometry, % hCD33+hCD11b+ of hCD45+ cells), human AML PDx models in NSG mice; format: in vivo; details: for AML cell differentiation (% hCD33 + hCD11b+ (of hCD45+ cells)): F: 50 mg/kg Midostaurin, QD, PO, one animal
Description: as §1

[3] = tested on: IDH1(R132H) primary human AML cells; experiment: Bone marrow AML clearance (flow cytometry), human AML PDx models in NSG mice; format: in vivo
Description: as §1

2-HG production = experiment: Plasma 2-HG inhibition (LC-MS metabolite analysis in plasma of AML PDx model); format: in vivo, human
[4] = 50 mg/kg Midostaurin, QD, PO, each line one animal
[5] = plasma, F: 50 mg/kg Midostaurin, QD, PO, one line per animal

## CO[C@@H]1[C@H](N(C)C(=O)c2ccccc2)C[C@H]2O[C@]1(C)n1c3ccccc3c3c4c(c5c6ccccc6n2c5c31)C(=O)NC4 [Midostaurin, reference compound]
[1]; Treatment day 7
  AML clearance (% hCD33 + hCD45+ (of total white cells)): 10.05% and 3.62% and 8.05% and 11.35% and 2.53%
[1]; Treatment day 23
  AML clearance (% hCD33 + hCD45+ (of total white cells)): 6.24% and 3.75% and 7.09% and 2.63% and 0.84%
[1]; Treatment day 36
  AML clearance (% hCD33 + hCD45+ (of total white cells)): 3.7% and 1.83% and 4.68% and 2.15% and 0.28%
[1]; Treatment day 50
  AML clearance (% hCD33 + hCD45+ (of total white cells)): 2.21% and 0.76% and 3.72% and 1.29% and 0.21%
[1]; Treatment day 64
  AML clearance (% hCD33 + hCD45+ (of total white cells)): 7.01% and 2.16% and 3.93% and 4.84% and 0.18%
[1]; Treatment day 78
  AML clearance (% hCD33 + hCD45+ (of total white cells)): 18.03% and 2.94% and 8.24% and 14.27% and 0.14%
[1]; Treatment day 92
  AML clearance (% hCD33 + hCD45+ (of total white cells)): 35.38% and 4.09% and 14.55% and 30.48% and 0.86%
[1]; Treatment day −8
  AML clearance (% hCD33 + hCD45+ (of total white cells)): 7.94% and 8.17% and 6.23% and 2.27%
[1]; day 50, vehicle 32%
  % peripheral blood AML cells (treatment group value): 1.1%
[1]; day 64, vehicle 67%
  % peripheral blood AML cells (treatment group value): 2.2%
[1]; day 78, vehicle 129%
  % peripheral blood AML cells (treatment group value): 3.9%
[2]; treatment day 7
  AML cell differentiation (% hCD33 + hCD11b+ (of hCD45+ cells)): 25.48% and 12.53% and 9% and 38.3% and 27.14%
[2]; treatment day 23
  AML cell differentiation (% hCD33 + hCD11b+ (of hCD45+ cells)): 25.27% and 17.13% and 9.1% and 36.3% and 25.56%
[2]; treatment day 36
  AML cell differentiation (% hCD33 + hCD11b+ (of hCD45+ cells)): 45.81% and 34.03% and 21.16% and 47.53% and 25.64%
[2]; treatment day 50
  AML cell differentiation (% hCD33 + hCD11b+ (of hCD45+ cells)): 43.86% and 28.75% and 20.78% and 40% and 30.3%
[2]; treatment day −8 (before treatment)
  AML cell differentiation (% hCD33 + hCD11b+ (of hCD45+ cells)): 19.58% and 13.81% and 18.12% and 19.57%
[2]; day 50, group F: midostaurin (50 mg/kg), vehicle 28%
  % AML cell differentiation (treatment group value): 33%
[3]; [4]
  Bone Marrow AML Clearance: % hCD33 + hCD45+ (% of white cells): 51.84% and 6.3% and 22.34% and 59.24% and 25.84%
  Bone Marrow AML Clearance: % hCD45+ (% of white cells): 51.3% and 6.25% and 22.22% and 58.42% and 25.71%
[3]; group F: midostaurin (50 mg/kg), vehicle 86%
  % human AML cells in bone marrow (of white cells; lower = more clearance): 26%
2-HG production; group F: midostaurin (50 mg/kg), vehicle 100%
  % plasma 2-HG (treatment group value): 70%
2-HG production; [5]
  2-HG: 14.919 µM and 11.402 µM and 7.494 µM and 21.55 µM and 10.075 µM
  Naive Subtracted 2-HG: 12.51 µM and 8.993 µM and 5.085 µM and 19.141 µM and 7.666 µM

Source: patent publication US12440493B2, “Combination therapy for treating cancer comprising substituted piperazines” (Eli Lilly and Company, priority 2020, dated 2025)
